Source: US10493102B2, “Methods of inhibiting the virulence of a pathogen with an oxidized tannin to treat a gastrointestinal spasm” (priority 2012, dated 2019)
Values belong to the molecule of their own block, whether it stands above or below them.

How the values were obtained:
[1] = Amount of hydrogen peroxide that remains bound to the polyphenol in dry form; format: physicochemical; conditions: dry form redissolved in water; WATERWORKS peroxide test strip
From the text: Art-recognized procedures, such as those set-forth at least in U.S. Pat. Nos. 3,860,694; 3,864,454; 4,171,280; and 4,966,762, were used as a guide for this study.
As discussed, one of skill will appreciate that hydrogen peroxide in a free form, for example, would otherwise quickly degrade. The polyphenols were provided from model compounds or plant extracts. A dry form of the compositions was made between (i) gallic acid (a model polyphenol building block from Sigma-Aldrich) and hydrogen peroxide; (ii) tannic acid (a model polyphenol component from Sigma-Aldrich) and hydrogen peroxide; (iii) pomegranate husk extract and hydrogen peroxide; and, (iv) green tea extract and hydrogen peroxide; using the procedures taught herein, including: • i. adding a solution of 35% hydrogen peroxide slowly into each of the gallic acid powder, tannic powder, pomegranate husk extract powder; or green tea extract powder. […]

[2] = test system: IBS patients, abdominal pain; conditions: other studies; cited from earlier work
[3] = test system: E. coli; assay: Stability of hydrogen peroxide (bound vs free) in aqueous solution challenged with E. coli; format: physicochemical
From the text: This method tests the stability of the hydrogen peroxide in the combination. The testing methods used follow the standard procedures set-forth by the Clinical and Laboratory Standards Institute (CLSI) and US Pharmacopeia. • i. E. coli was chosen as the bacteria to challenge the stability of the bound compositions and the free hydrogen peroxide. • ii. The hydrogen peroxide concentration was matched to the selected bacteria in order to form a useful curve representing hydrogen peroxide degradation over time for the samples. As such, the hydrogen peroxide was varied from 62.5 ppm to 500 ppm on a fixed E. coli concentration of 10^6 CFU/ml, and a concentration of 125 ppm was chosen as the initial hydrogen peroxide level used to challenge the E. coli over time. • iii. A ratio of 1:1 of the hydrogen peroxide to each of the model compounds and plant extracts was used to form each bound composition, such that 125 ppm of each plant extract was combined with the 125 ppm of the hydrogen peroxide, • iv. The free hydrogen peroxide was added at a concentration of 125 ppm as a control to show the relative stability of the hydrogen peroxide alone in the aqueous solution as compared to the bound compositions.
FIG. 2A compares stabilities of free hydrogen peroxide to hydrogen peroxide bound to each of: gallic acid (a model polyphenol building block), tannic acid (a model polyphenol), pomegranate husk extract, green tea extract, and Blessed thistle extract. […] In both FIGS. 2A and 2B, there are curves that cannot be identified well individually, as they are identical and overlapping. […]

hydrogen peroxide bound by total dry wt [1]: about 2.5%
SMILES: O=C(OC[C@H]1O[C@@H](OC(=O)c2cc(O)c(O)c(OC(=O)c3cc(O)c(O)c(O)c3)c2)[C@H](OC(=O)c2cc(O)c(O)c(OC(=O)c3cc(O)c(O)c(O)c3)c2)[C@@H](OC(=O)c2cc(O)c(O)c(OC(=O)c3cc(O)c(O)c(O)c3)c2)[C@@H]1OC(=O)c1cc(O)c(O)c(OC(=O)c2cc(O)c(O)c(O)c2)c1)c1cc(O)c(O)c(OC(=O)c2cc(O)c(O)c(O)c2)c1 [tannic acid]

hydrogen peroxide bound by total dry wt [1]: about 3.0%
SMILES: O=C(O)c1cc(O)c(O)c(O)c1 [gallic acid]

SMILES: CN(C)C(=O)C(CCN1CCC(O)(c2ccc(Cl)cc2)CC1)(c1ccccc1)c1ccccc1 [loperamide]
effect on abdominal pain symptoms compared with placebo [2]: no different from placebo

SMILES: OO [H2O2, hydrogen peroxide]
hydrogen peroxide level, Hours 0 ([3]; 0 h (initial level), 1:1 extract:H2O2, 125 ppm each, E. coli 10^6 CFU/ml): 125 ppm | hydrogen peroxide level, Hours 4 ([3]; 4 h, 1:1 extract:H2O2, E. coli 10^6 CFU/ml): 15 ppm | hydrogen peroxide level, Hours 8 ([3]; 8 h, 1:1 extract:H2O2, E. coli 10^6 CFU/ml): 0 ppm | hydrogen peroxide level, Hours 12 ([3]; 12 h, 1:1 extract:H2O2, E. coli 10^6 CFU/ml): 0 ppm | hydrogen peroxide level, Hours 16 ([3]; 16 h, 1:1 extract:H2O2, E. coli 10^6 CFU/ml): 0 ppm | hydrogen peroxide level, Hours 20 ([3]; 20 h, 1:1 extract:H2O2, E. coli 10^6 CFU/ml): 0 ppm | hydrogen peroxide level, Hours 24 ([3]; 24 h, 1:1 extract:H2O2, E. coli 10^6 CFU/ml): 0 ppm | hydrogen peroxide level after degradation ([3]; within about the first 8 hours): ~0.0 ppm
